Results on 4 molecules are retold here after patent US8927063B2, “Compositions for the treatment of timber and other wood substrates” (TimTechChem International Limited, priority 2008, dated 2015).

Data set [1] can be described thus: Example 3: solubility and formulation stability in ester solvents. The procedure:
Further formulation tests were carried out to ascertain if the fungicide IPBC (iodo propyl butyl carbamate, CAS No 55406-53-6) was soluble in ester compounds of formula (I).

Data set [2] in a line: Example 2: solvent evaporation rate from treated wood pieces (daily re-weighing). To be noted: 17-22 °C, no external airflow.
Method: The wood pieces were placed on plastic bearers allowing good access of air to all surfaces and situated in a dedicated room with no external airflow. Air temperatures in the room were mainly in the range 17-22° C.
The wood pieces were re-weighed daily to determine weight loss rates for the various solvents.

Consider `N#Cc1c(Cl)c(Cl)c(Cl)c(C#N)c1Cl` [chlorothalonil], for which the solubility entry in data set [1] (in butyl ethanoate) and in data set [1] (in propyl ethanoate) was “less than 1%” each time.
Regarding `CCOC(C)=O` [ethyl ethanoate], the “% Solvent Remaining in Wood” value amounted to 3.8% in data set [2] (After 24 h), 0% in data set [2] (After 48 h) and 0% in data set [2] (After 72 h).
For the molecule `CCCCOC(C)=O` [n-butyl ethanoate], the results for the “% Solvent Remaining in Wood” value in data set [2] (After 24 h), in data set [2] (After 48 h) and in data set [2] (After 72 h) were 6.9%, 3.1% and 0.8%, respectively.
`CC(C)(C)C(O)(CCc1ccc(Cl)cc1)Cn1cncn1` (stereo not drawn) [tebuconazole]: the “solubilisation in the esters of the invention” value in data set [1] is given as “good solubilisation”.
